Patent US20260199350A1, “FLAVONES, QUINOLINONES, QUINAZOLINONES, AND AURONES, AND USES IN CK2-MEDIATED DISEASES” (Salk Institute for Biological Studies, priority 2022, published 2026)
Entries after “also recorded” stand apart in the source; their conditions may differ.

Legend:
microglial phagocytosis = test: Microglial phagocytosis assay (pHrodo E. coli beads); format: cell-based, human; details: 20 μM, P=0.0015
Description: Phagocytosis assay. […] (2-3 biological replicates). Then, 0.5 μL of pHrodo E. Coli-FITC beads (Thermo Fisher, P35366) was added per well with gentle mixing and the cells were incubated for another 4 hours. pHrodo beads only fluoresce when they are internalized in cells. Cells were then collected by scraping, washed with FACS buffer (1×DPBS, 2% BSA, and 0.05 mM EDTA pH 8.0), and counter-stained with Zombie Violet to assess viability. Live cells were analyzed on the FACS Canto instrument for geometric mean fluorescence on the FITC channel. The background FITC fluorescence value (pHrodo beads only) was subtracted from each mean, and fold-change was computed across experimental groups.

phosphorylated NF-κB = test: pNF-κB immunoblot in AD patient-derived astrocytes; format: cell-based, human; details: 5 h treatment
[1] = tested on: IL-6, IL-8, TNF-α, and MCP-1; test: Flow cytometry assay of cytokine production in HCA; format: cell-based, human; details: 20 μM compound, 10 ng/mL IL1-β
Description: Flow cytometry. For each well of HCA in a 6-well plate, 2 mL of fresh media with GolgiPLUG (BD #555029, 1:1000) and GolgiSTOP (BD #554724, 1:1000) with 20 μM compound or vehicle (DMSO) and IL1b 10 ng/mL or DPBS was added. The cells were incubated for 5 h at 37° C. Cells were collected with TrypLE and plated into a 96-well V-bottom plate for staining. The plate was centrifuged for 5 min, 1300 rpm, 4° C. to pellet cells, which were subsequently resuspended in 100 μL DPBS with 1 μL Zombie Violet (Biolegend #4231 13) and 5 μL Human Trustain FC block (Biolegend #422302) per well for 15 min at room temperature in the dark. The plate was centrifuged, supernatant was aspirated, and the cells were washed with 100 μL/well DPBS. Cells were fixed with 100 μL/well of Cytofix/Cytoperm (BD) for 20 min at 4° C. The plate was centrifuged, supernatant was aspirated, and cells were resuspended in 100 μL Permwash (BD) and incubated for 15 min at 4° C. The plate was centrifuged, supernatant was aspirated, and cells were incubated with 100 μL/well of Ab mix or isotype mix in Permwash (see below) for 20 min at 4° C., followed by centrifugation and 2× PermWash washes. The cells were resuspended in 100 μL DPBS and transferred to FACS tubes containing 200 ul of PBS (total volume per tube 300 μL) for analysis on FACS Analyzers (LSRII or Fortessa).
A flow cytometry-based assay was used to assess the anti-inflammatory activity of several natural flavonoid compounds (FIG. 1A) and build corresponding structure-activity relationships. Primary human cerebellar astrocytes (HCA) were co-treated with 20 μM of each compound or vehicle (DMSO), 10 ng/mL IL1-β, and a protein transport inhibitor for 6 hours, and then processed for intracellular staining of pro-inflammatory cytokines IL-6, IL-8, TNF-α, and MCP-1. The presence of a C2-C3 double bond was the predominant determining factor for anti-inflammatory activity. […] There was no cytotoxicity associated with flavone treatment (FIG. 1E).

CK2α1 = CK2α1 (Homo sapiens, UniProt P68400); test: Thermal shift assay followed by Western blotting; format: binding; set-up: endogenous in cells; details: astrocyte lysates
Description: Thermal shift assay and TPP. Experiments were performed as previously described (Franken et al., Nature Protocols 2015, 10:1567-1593; Reinhard et al., Nature Methods 2015, 12:1129-1131). 45 million H1-derived astrocytes were activated with 10 ng/mL IL1b for 6 h, dissociated with 1:1 Accutase/papain (3 min rt), and centrifuged at 1,800 rpm for 2 min at 4 C. The pellet was washed twice with 10 mL cold DPBS, lysed in 2.25 mL DPBS and 0.4% v/v NP-40 by freeze-thawing 3×, and clarified by centrifugation (20,000 g, 30 min, 4° C.). Protein concentration was determined by BCA assay (Bio-Rad), and lysates were diluted to 2 mg/mL. […] Reactions were incubated at rt for 30 min, after which each treated extract was divided into 10 aliquots of 95 μL in PCR strip tubes and stored on ice. Each group of treated samples was heated for 3 min at predesignated temperatures (3×10 temperatures), then kept for 3 min at rt before ultracentrifugation (20 min at 4° C., 100,000 g) in 200 μL polycarbonate tubes (Beckman Coulter #343775). Designated temperatures were 37, 41.1, 43.6, 46.9, 50, 53.7, 56, 59.5, 63, and 67° C. A small aliquot (5 μL) of supernatant was saved for Western blotting, and the rest was snap frozen at −80 C and submitted for LC-MS/MS.

IL-6 secretion = IL-6 secretion assay in astrocytes (Promega Lumit IL-6 kit); format: cell-based, human; details: astrocytes and microglia; FIG. 2D, FIG. 1C
How it was run: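 Human astrocytes (HCAs), 20,000 per well, cultured 2-3 days, then stimulated with 10 ng/mL IL1B alongside compound dilution series. IL-6 secreted over 5 h quantified by Lumit IL-6 luminescent immunoassay.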

Chain of CK2α1 (P68400 whole entry): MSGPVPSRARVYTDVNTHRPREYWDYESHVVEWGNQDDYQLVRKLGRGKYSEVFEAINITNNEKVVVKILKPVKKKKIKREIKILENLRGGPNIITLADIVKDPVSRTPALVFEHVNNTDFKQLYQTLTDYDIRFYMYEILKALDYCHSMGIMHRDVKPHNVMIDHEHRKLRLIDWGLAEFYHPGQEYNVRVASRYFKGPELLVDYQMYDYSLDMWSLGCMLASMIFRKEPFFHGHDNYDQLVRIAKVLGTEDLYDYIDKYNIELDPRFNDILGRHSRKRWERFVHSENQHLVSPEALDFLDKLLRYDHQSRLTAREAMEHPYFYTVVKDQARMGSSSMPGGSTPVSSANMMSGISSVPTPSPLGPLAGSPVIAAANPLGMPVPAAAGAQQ

COc1cc(-c2cc(=O)c3c(O)cc(O)cc3o2)ccc1O [CHR, Chrysoeriol]
Microglial phagocytosis of pHrodo E. coli beads (microglial phagocytosis): blocked
Elevated phosphorylated NF-κB in AD astrocytes (phosphorylated NF-κB): reduced
IL1-β-induced IL-6, IL-8, TNF-α, MCP-1 cytokine upregulation [1]: active; also recorded: strong suppressive activity
Thermal stabilization of CK2α1 (CK2α1): dose-dependently stabilized
Anti-inflammatory effects, dose dependence (IL-6 secretion): dose-dependent
